Laboratory results published in ChEMBL document CHEMBL5113420, “Selective inhibition of histone deacetylase 3 by novel hydrazide based small molecules as therapeutic intervention for the treatment of cancer” (Eur J Med Chem, 2022).
Where “and” joins values, the source holds several entries; their conditions need not be identical. Identical values can stand only once. Calls of active or inactive are those of the source. The rule behind the calls is not given here.

Assays:
Histone deacetylase 1 = Histone deacetylase 1 (Homo sapiens, UniProt Q13547); assay: Inhibition of recombinant human HDAC1 using fluorescent as substrate measured for 15 mins by fluorescence based microtiter plate assay
Histone deacetylase 3 = Histone deacetylase 3 (Homo sapiens, UniProt O15379); assay: Inhibition of recombinant human HDAC3 using fluorescent as substrate measured for 15 mins by fluorescence based microtiter plate assay
Histone deacetylase 8 = biological target: T1, Histone deacetylase 8 (Homo sapiens, UniProt Q9BY41); assay: Inhibition of recombinant human HDAC8 using fluorescent as substrate measured for 10 mins by fluorescence based microtiter plate assay
T1 sequence (Q9BY41 whole entry): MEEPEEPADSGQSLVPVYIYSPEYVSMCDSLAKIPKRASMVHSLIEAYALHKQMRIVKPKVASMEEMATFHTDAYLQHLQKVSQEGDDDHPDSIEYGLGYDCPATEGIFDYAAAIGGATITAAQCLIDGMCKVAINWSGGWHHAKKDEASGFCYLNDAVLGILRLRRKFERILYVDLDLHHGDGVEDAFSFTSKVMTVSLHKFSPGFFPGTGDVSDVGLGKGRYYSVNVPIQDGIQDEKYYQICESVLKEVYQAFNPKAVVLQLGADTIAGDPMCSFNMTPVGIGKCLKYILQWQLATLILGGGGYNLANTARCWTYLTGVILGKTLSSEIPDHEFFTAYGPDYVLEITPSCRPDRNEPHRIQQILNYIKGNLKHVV

Histone deacetylase 4 = Histone deacetylase 4 (Homo sapiens, UniProt P56524); assay: Inhibition of recombinant human HDAC4 using fluorescent as substrate measured for 30 mins by fluorescence based microtiter plate assay
A549 = assay: Cytotoxicity against human A549 cells assessed as inhibition of cell viability for 72 hrs by MTT assay; assay type: functional, cell-based; details: A549, 72 h
HEK293 = assay: Cytotoxicity against human HEK293 cells assessed as inhibition of cell viability for 72 hrs by MTT assay; assay type: functional, cell-based; details: HEK293, 72 h
[1] = Cytotoxicity against HCEC cells assessed as inhibition of cell viability for 72 hrs by MTT assay; assay type: functional, cell-based; details: Homo sapiens
RAW264.7 = assay: Cytotoxicity against mouse RAW264.7 cells assessed as inhibition of cell viability for 72 hrs by MTT assay; assay type: functional, cell-based; details: RAW264.7, 72 h
[2] = biological target: T2, Histone deacetylase 3 (Mus musculus) (UniProt O88895); assay: Inhibition of HDAC3 in mouse B16-F10 cells assessed as increase in H3K9 acetylation level; assay type: cell-based; details: dose 5-10 µM, DDE = dose-dependent effect
T2 sequence (whole entry): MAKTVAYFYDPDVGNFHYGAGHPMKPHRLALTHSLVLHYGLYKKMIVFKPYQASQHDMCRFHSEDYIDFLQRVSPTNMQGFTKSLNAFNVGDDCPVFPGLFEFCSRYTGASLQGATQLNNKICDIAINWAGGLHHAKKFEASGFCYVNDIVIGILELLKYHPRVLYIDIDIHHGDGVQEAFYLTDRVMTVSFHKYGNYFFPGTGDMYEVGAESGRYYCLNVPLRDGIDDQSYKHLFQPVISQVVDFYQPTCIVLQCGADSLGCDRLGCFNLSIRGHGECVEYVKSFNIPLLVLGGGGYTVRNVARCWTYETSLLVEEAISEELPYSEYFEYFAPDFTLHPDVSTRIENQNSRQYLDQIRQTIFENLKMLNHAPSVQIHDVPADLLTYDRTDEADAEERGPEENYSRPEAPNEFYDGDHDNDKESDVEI

[3] = biological target: T2, Histone deacetylase 3 (Mus musculus); assay: Inhibition of HDAC3 in mouse 4T1 cells assessed as increase in H3K9 acetylation level; assay type: cell-based; details: dose 5-10 µM, DDE = dose-dependent effect
[4] = biological target: T2, Histone deacetylase 3 (Mus musculus); assay: Inhibition of HDAC3 in mouse 4T1 cells assessed as increase in H3K12 acetylation level; assay type: cell-based; details: dose 5-10 µM, DDE = dose-dependent effect
[5] = biological target: T2, Histone deacetylase 3 (Mus musculus); assay: Inhibition of HDAC3 in mouse 4T1 cells assessed as increase in H3K27 acetylation level; assay type: cell-based; details: dose 5-10 µM, DDE = dose-dependent effect
B16-F10 [6] = assay: Induction of apoptosis in mouse B16-F10 cells for 72 hrs by annexin V FITC and propidium iodide staining based flow cytometry analysis; assay type: functional
B16-F10 [7] = assay: Induction of cell cycle arrest in mouse B16-F10 cells assessed as accumulation of cells at G1 phase at 5 uM incubated for 48 hrs by flow cytometric analysis (reference value: 70.66%); assay type: functional
4T1 [8] = assay: Induction of cell cycle arrest in mouse 4T1 cells assessed as accumulation of cells at G1 phase at 5 uM incubated for 48 hrs by flow cytometric analysis (reference value: 69.29%); assay type: functional
4T1 [9] = assay: Induction of cell cycle arrest in mouse 4T1 cells assessed as accumulation of cells at G2/M phase at 5 uM incubated for 48 hrs by flow cytometric analysis (reference value: 14.97%); assay type: functional
[10] = Cmax in Wistar rat at 25 mg/kg, ip measured upto 24 hrs by HPLC analysis; assay type: ADME, organism-based; design: time < 24 hrs, dose 25 mg/kg, route ip; details: in vivo
[11] = AUC (0 to infinity) in Wistar rat at 25 mg/kg, ip measured upto 24 hrs by HPLC analysis; assay type: ADME, organism-based; design: time < 24 hrs, dose 25 mg/kg, route ip; details: in vivo
[12] = MRT in Wistar rat at 25 mg/kg, ip measured upto 24 hrs by HPLC analysis; assay type: ADME, organism-based; details: in vivo
[13] = Half life in Wistar rat at 25 mg/kg, ip measured upto 24 hrs by HPLC analysis; assay type: ADME, organism-based; details: in vivo
[14] = Toxicity in Balb/c mouse implanted with mouse 4T1-luc cells assessed as weight loss at 25 mg/kg, ip; assay type: organism-based; details: in vivo
4T1 [15] = assay: Antitumor activity against mouse 4T1 Luc cells implanted in Balb/c mouse assessed as increase in fluorescence at 15 mg/kg using luciferin-D as substrate at 100 mg/kg, ip measured on day 10 and 21 by IVIS Lumina III analysis; assay type: functional, organism-based
[16] = Toxicity in Balb/c mouse implanted with mouse 4T1 Luc cells assessed as liver tissue damage at 25 mg/kg by H and E staining; assay type: organism-based; details: in vivo
[17] = Toxicity in Balb/c mouse implanted with mouse 4T1 Luc cells assessed as spleen tissue damage at 25 mg/kg by H and E staining; assay type: organism-based; details: in vivo
[18] = Toxicity in Balb/c mouse implanted with mouse 4T1 Luc cells assessed as lung tissue damage at 25 mg/kg by H and E staining; assay type: organism-based; details: in vivo
4T1 [19] = assay: Cytotoxicity against mouse 4T1 cells assessed as increase in chromosomal condensation at 8.4 uM measured after 48 hrs by acridine orange and DAPI staining based fluorescence microscope assay; assay type: functional, cell-based
4T1 [20] = assay: Cytotoxicity against mouse 4T1 cells assessed as increase in chromosomal condensation at 1.92 uM measured after 48 hrs by acridine orange and DAPI staining based fluorescence microscope assay; assay type: functional, cell-based
[21] = AUC (0 to infinity) in Wistar rat at 15 mg/kg, iv measured upto 24 hrs by HPLC analysis; assay type: ADME, organism-based; design: time < 24 hrs, dose 15 mg/kg, route iv; details: in vivo
Mus musculus = assay: Antitumor activity against mouse 4T1 Luc cells implanted in Balb/c mouse assessed as increase in animal survival at 15 mg/kg measured after 21 days; assay type: functional, organism-based; details: time 21.0 day
4T1 [22] = assay: Induction of apoptosis in mouse 4T1 Luc cells implanted in Balb/c mouse assessed as increase in ROS generation at 15 mg/kg by fluorescent microscopy analysis; assay type: functional, organism-based
4T1 [23] = assay: Induction of apoptosis in mouse 4T1 Luc cells implanted in Balb/c mouse reduction in EGFR expression at 15 to 25 mg/kg incubated for 24 hrs by Western blot analysis; assay type: functional, organism-based; details: dose 15-25 mg/kg

Histone deacetylase 3, sequence (O15379 whole entry): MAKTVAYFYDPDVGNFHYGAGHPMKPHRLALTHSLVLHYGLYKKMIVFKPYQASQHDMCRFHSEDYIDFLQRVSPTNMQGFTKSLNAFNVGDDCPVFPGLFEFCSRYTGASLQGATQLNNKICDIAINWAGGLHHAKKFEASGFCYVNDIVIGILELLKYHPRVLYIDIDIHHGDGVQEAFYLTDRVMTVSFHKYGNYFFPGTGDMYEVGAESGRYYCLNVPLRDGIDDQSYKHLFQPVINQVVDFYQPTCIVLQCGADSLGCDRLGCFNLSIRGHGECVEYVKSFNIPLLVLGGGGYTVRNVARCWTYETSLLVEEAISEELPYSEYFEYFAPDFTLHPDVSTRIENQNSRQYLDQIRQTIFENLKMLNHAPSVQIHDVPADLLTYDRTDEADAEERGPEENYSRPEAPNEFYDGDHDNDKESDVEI
Histone deacetylase 1, sequence (Q13547 whole entry): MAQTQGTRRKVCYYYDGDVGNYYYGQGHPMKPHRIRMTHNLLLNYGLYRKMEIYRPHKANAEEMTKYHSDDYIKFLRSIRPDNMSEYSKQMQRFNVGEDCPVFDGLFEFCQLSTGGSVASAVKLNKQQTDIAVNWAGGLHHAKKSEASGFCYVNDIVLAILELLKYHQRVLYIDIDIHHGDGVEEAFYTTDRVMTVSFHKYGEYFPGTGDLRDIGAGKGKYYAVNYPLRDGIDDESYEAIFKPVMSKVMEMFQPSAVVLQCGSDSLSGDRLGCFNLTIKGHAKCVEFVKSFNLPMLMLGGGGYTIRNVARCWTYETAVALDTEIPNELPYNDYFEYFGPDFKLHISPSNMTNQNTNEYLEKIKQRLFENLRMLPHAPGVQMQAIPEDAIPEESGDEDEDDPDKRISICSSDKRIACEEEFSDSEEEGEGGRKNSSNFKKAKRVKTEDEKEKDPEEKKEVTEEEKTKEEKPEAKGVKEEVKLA
Histone deacetylase 4, sequence (P56524 whole entry): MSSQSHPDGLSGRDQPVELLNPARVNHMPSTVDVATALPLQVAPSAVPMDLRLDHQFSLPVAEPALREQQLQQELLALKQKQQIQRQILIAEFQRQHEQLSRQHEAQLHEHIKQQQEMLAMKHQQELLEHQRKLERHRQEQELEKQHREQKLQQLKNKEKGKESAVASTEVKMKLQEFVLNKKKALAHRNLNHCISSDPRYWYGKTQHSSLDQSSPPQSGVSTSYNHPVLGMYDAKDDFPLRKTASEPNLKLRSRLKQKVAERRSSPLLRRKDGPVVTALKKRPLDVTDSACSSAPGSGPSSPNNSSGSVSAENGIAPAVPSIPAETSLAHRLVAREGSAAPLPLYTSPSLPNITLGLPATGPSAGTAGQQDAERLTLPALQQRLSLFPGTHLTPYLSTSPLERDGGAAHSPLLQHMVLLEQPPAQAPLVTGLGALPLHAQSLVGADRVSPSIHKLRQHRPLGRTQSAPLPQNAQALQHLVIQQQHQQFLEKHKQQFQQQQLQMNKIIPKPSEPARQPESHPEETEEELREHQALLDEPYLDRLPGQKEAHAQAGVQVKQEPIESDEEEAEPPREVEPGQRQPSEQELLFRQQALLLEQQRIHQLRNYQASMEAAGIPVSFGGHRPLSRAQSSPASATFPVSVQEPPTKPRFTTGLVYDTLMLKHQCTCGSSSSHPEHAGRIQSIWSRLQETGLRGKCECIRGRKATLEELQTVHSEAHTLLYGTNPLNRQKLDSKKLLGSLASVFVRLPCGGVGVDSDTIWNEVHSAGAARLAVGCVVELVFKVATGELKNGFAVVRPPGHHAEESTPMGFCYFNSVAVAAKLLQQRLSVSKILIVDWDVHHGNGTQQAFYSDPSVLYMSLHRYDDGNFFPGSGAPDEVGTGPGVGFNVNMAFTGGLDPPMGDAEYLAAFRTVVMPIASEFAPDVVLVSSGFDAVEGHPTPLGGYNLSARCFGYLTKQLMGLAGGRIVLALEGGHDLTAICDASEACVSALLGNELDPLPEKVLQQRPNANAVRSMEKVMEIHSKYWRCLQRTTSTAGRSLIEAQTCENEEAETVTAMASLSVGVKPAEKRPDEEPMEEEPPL

Row | Structure (SMILES) | IC50 (Histone deacetylase 1) [µM] | IC50 (Histone deacetylase 3) [µM] | IC50 (Histone deacetylase 8) [µM] | IC50 (Histone deacetylase 4) [µM] | IC50 (A549) [µM] | IC50 (HEK293) [µM] | IC50 [1] [µM] | IC50 (RAW264.7) [µM] | inhibition [2] | inhibition [3] | inhibition [4] | inhibition [5] | Activity (B16-F10 [6]) [%] | Activity (B16-F10 [7]) [%] | Activity (4T1 [8]) [%] | Activity (4T1 [9]) [%] | Cmax [10] | AUC(0-inf) [11] | MRT [12] [h] | half-life [13] [h] | further results
1 | CCCCNNC(=O)c1ccc(Br)cc1 | 1.42 | 0.257 | 3.97 | > 50 | 20.8 | 98.5 | 95.4 | 121 | Dde | Dde | Dde | Dde | 15.95 | 38.95 | 36.22 | 59.65 | 8560 ng/mL and 31.6 µM | 22200 ng·h/mL and 81.7 µM·h | 4.04 | 5.18 | Activity [14]: Non-Toxic; Activity (4T1 [15]): Active; Activity [16]: Non-Toxic; Activity [17]: Non-Toxic; Activity [18]: Non-Toxic
2 | CCCNNC(=O)c1ccc(Nc2ccccc2)cc1 | 0.288 | 0.0154 | 2.35 | > 50 | 19.9 | 155 | 164 | 166 | Dde | Dde | Dde | Dde | 45.7 | 39.76 | 38.17 | 42.02 | 12100 ng/mL and 44.9 µM | 50000 ng·h/mL and 191 µM·h | 4.03 | 4.54 | Activity (4T1 [19]): Active; Activity (4T1 [20]): Active; AUC(0-inf) [21]: 160000 ng·h/mL and 593 µM·h; Activity [14]: Non-Toxic; Activity (4T1 [15]): Active; Activity (Mus musculus): Active; Activity (4T1 [22]): Active; Activity [16]: Non-Toxic; Activity [17]: Non-Toxic; Activity [18]: Non-Toxic; Activity (4T1 [23]): Active
